Reference: patent publication US6602519B1, “Oxidized thymosin β4” (The University Court of the University of Glasgow, priority 1998, dated 2003)
“Also recorded” adds a separate entry of the source.

Experiments:
[1] = tested on: fMLP-induced chemotaxis of human neutrophils; assay: Chemotaxis assay (modified Boyden chamber); assay type: cell-based; settings: for chemotactic activity of the substance itself: Boyden chamber; for inhibition of chemotaxis to fMLP: substance in upper chamber, fMLP in lower chamber
Description: Filters (Sartorius membrane filter 3 μm pore) were cut and glued to a modified iml syringe barrel. 300 μl of 2×10^6/ml neutrophils were added to 300 μl antagonist and 200 μl of the suspension was added to the upper chamber (syringe barrel). The lower chamber (a 5 ml beaker), contained 3.6 ml of agonist. After 45 minutes, the cells were fixed in 70% ethanol for 5 minutes. This procedure also removes the filter from the syringe barrel by dissolving the glue. The filters were placed in a multi-well dish and treated as follows: distilled water for 2 minutes, Harris haematoxylin 1 minute, distilled water 1 min, Scotts Tap water (1:1 0.7% sodium bicarbonate:4% Magnesium sulphate (v/v) for 5 minutes, 70% ethanol 3 mins, 95% ethanol 3 minutes and 80%:20% ethanol:butanol (v/v) 5 minutes. The filters were cleared in xylene for 5 minutes, mounted in DEPEX and examined under bright field illumination with a 40× objective. Five randomly selected fields were counted for each filter.

[2] = tested on: Human umbilical vein endothelial cells (HUVEC); assay: Scratch wound assay (endothelial sheet wound closure); assay type: cell-based
Description: Scratch wound assay: Human umbilical vein endothelial cells (HUVEC) were grown to confluency in multiwell dishes (Corning) and a scratch made across the diameter of each well with a sterile pipette tip. The resulting wound (approx. 1 mm) was then measured before the addition of Tβ4 or Tβ4so and at 45 min intervals.

human neutrophils = assay: Cell tracking assay (neutrophil locomotion); assay type: cell-based; settings: uniform concentration
Description: Neutrophils were obtained as described by Chettibi et al. [1993]. Briefly, whole blood was mixed with 1:10 v/v of 5% dextran and allowed to sediment at 37° C. for 1 hour. The leucocyte rich plasma was layered over Nycoprep 1.077 and centrifuged at 750 g for 15 minutes. Erythrocytes in the resulting pellet were removed by hypotonic lysis and neutrophils were washed twice with balanced salt solution (BSS). The cells were checked for viability by trypan blue exclusion (generally greater than 96% viable).
Automated cell-tracking migration chambers were made as previously described [Chettibi et al., 1993] and placed on the stage of an inverted phase-contrast microscope within a temperature controlled (37° C.) transparent box and locomotion observed by means of a video camera connected to a monochrome monitor and also to an Acorn A5000 computer with a Watford video digitiser programmed to capture and analyze one frame every 5 seconds. Data was obtained from a maximum of 80 selected cells and used to calculate instantaneous speed, the 2-dimensional diffusion coefficient and the locomotion persistence time, using the described procedure to eliminate the contribution of systematic drift [Chettibi et al., 1994].

[3] = tested on: carrageenan-induced footpad swelling; assay: Carrageenan induced oedema test; assay type: in vivo, BALB/c mice; settings: for reduction of carrageenan-induced oedema: 800 ng doses
Description: Induction of Inflammatory Response to Carrageenin: Groups of mice were injected subcutaneously in one hind paw with 300 μg carrageenin mixed the thymosin β4, native or sulphoxide in a final volume of 50 μl. Control animals were injected with the same volume of saline. Footpad swelling was measured using a spring-dial calliper, and expressed as the difference in swelling between the carrageenin-injected paw and the uninjected, contralateral paw. The animals were injected intraperitoneally (i.p.) With the same dose of thymosin β4, native or sulphoxide and footpad measurements made at 6, 24, 48 and 72 hours.

G-actin = settings: high salt conditions; cited from earlier work

Substance	chemotactic activity of the substance itself [1]	inhibition of chemotaxis to fMLP [1]	wound healing (closure rate of scratch on endothelial monolayer) [2]	dispersive locomotion of neutrophils (human neutrophils)	reduction of carrageenan-induced oedema [3]	suppression of footpad swelling ([3]; 1000 ng dose)	potency of inhibition of chemotaxis relative to native Tβ4 ([1]; oxidised versus native peptide)	potency in wound closure relative to native peptide ([2]; oxidised versus native peptide)	suppression of footpad swelling ([3]; 10 ng dose)	suppression of footpad swelling ([3]; 100 ng dose)	suppression of footpad swelling ([3]; administration 30 minutes prior to, during and 6 hours after carrageenan, evident after 6 h, sustained up to 24 hours)	concentration needed to inhibit actin polymerisation relative to thymosin β4 (G-actin) [fold]
thymosin β4 (SDKPDMAEIEKFDKSKLKKTETQEKNPLPSKETIEQEKQAGES; UniProt P62328 2-44, looked up) [Tβ4, native, non-oxidised thymosin β4 prepared from human neutrophils by HPLC, reference compound]	neither was chemotactic	both inhibited	promotes would healing	did not give significant dispersive locomotion	only the oxidised peptide significantly reduced	ineffective	–	–	–	–	–	–
oxidised thymosin β4 [Tβ4so]	neither was chemotactic	both inhibited	promotes would healing	dispersive at low concentrations	significantly reduced	–	an order of magnitude more potent; also recorded: tenfold more inhibitory	at least an order of magnitude higher potency	ineffective	ineffective	significant suppression of swelling	20
